Where two headings read alike, the source gives them in different places.

One assay deals with sGC α1/β1 heterodimer (Homo sapiens (Human), UniProt Q02108+Q02153). Briefly: Cell-based sGC functional assay (cyclic GMP assay for sGC activator: CASA assay). Details: % Activation: concentration or dose not given beside the values. Particulars: CHO-K1/sGC cells; for Emax: read-out: % Activation; for EC50: inflection point, 4P fit, read-out: IP. Summed up: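 CHO-K1 cells stably expressing human sGC α1/β1 were pre-incubated 30 min at 25° C with or without 1 μM DETA-NO, then exposed to compound for 1 hr at 37° C with 0.5 mM IBMX and 2.5% DMSO final. Intracellular cGMP was measured by HTRF, expressed as % of reference sGC-HDA maximum; inflection point and maximum fold induction came from 4-parameter fits.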

For assay [1], the target named is human recombinant sGC enzyme (Homo sapiens (Human), UniProt Q02108+Q02153). Put plainly: Size Exclusion Chromatography (SEC) competition binding assay using [3H] Ex-77B as the radioligand. Conditions: [3H] Ex-77B radioligand, 24 hours at 37° C. Summed up:
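Recombinant human sGC binding measured by competition against tritiated Ex-77B radioligand, with non-specific binding defined by 1 μM unlabeled Ex-77B.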

Setting [2] is: CHO-K1, activity expressed as percentage of compound A (standard).
Where [3] appears, read: activity expressed as percentage of compound A (standard).

On to `CC(C)(CCc1coc(C2(C)C(=O)Nc3nc(-c4nn(Cc5ccccc5F)c5ncccc45)nc(N)c32)n1)C(=O)O` (stereo not drawn) [Example 206B, 4-(2-{4-amino-2-[1-(2-fluorobenzyl)-1H-pyrazolo[3,4-b]pyridin-3-yl]-5-methyl-6-oxo-6,7-dihydro-5H-pyrrolo[2,3-d]pyrimidin-5-yl}-1,3-oxazol-4-yl)-2,2-dimethyl-butanoic acid], for which the Emax at sGC α1/β1 heterodimer (setting [2]) was found to be 113%. Further, on sGC α1/β1 heterodimer, the EC50 came out at 549 nM. For the same compound, the inhibitory constant (Ki) (usually a measure of affinity in units of concentration, obtained from inhibition or displacement) in assay [1] came to 0.798 nM.

`CC1(c2ccnc(C(=O)O)c2)C(=O)Nc2nc(-c3nn(Cc4ccccc4F)c4cc(Cl)ccc34)nc(N)c21` (stereo not drawn) [Example 143B, 4-{4-amino-2-[6-chloro-1-(2-fluoro-benzyl)-1H-indazol-3-yl]-5-methyl-6-oxo-6,7-dihydro-5H-pyrrolo[2,3-d]pyrimidin-5-yl} pyridine-2-carboxylic acid]: the Emax at sGC α1/β1 heterodimer (setting [2]) was determined as 76.1%. Also, the EC50 on sGC α1/β1 heterodimer came to 3380 nM. In addition, the Ki in assay [1] worked out at 0.174 nM.

Turning to `CC1CCC(Cn2nc(-c3nc(N)c4c(n3)NC(=O)C4(C)c3nc(CC(C)(C)C(=O)O)co3)c3cccnc32)CC1` (single isomer, unassigned) [Example 126AA, 3-{2-[4-amino-5-methyl-2-{1-[4-methylcyclohexylmethyl]-1H-pyrazolo[3,4-b]pyridin-3-yl}-6-oxo-6,7-dihydro-5H-pyrrolo[2,3-d]pyrimidin-5-yl]-1,3-oxazol-4-yl}-2,2-dimethylpropanoic acid], the “% Activation” value at sGC α1/β1 heterodimer (setting [3]) is on record as 89.0%. Also, at sGC α1/β1 heterodimer, the EC50 turned out to be 74 nM. Besides, the inhibitory constant (Ki) in assay [1] is 0.1 nM.

On to `CC1(c2nc(-c3ccc(C(=O)O)cc3)co2)C(=O)Nc2nc(-c3nn(Cc4ccccc4F)c4cc(Cl)ccc34)nc(N)c21` (stereo not drawn) [Example 164A, 4-(2-{4-amino-2-[6-chloro-1-(2-fluorobenzyl)-1H-indazol-3-yl]-5-methyl-6-oxo-6,7-dihydro-5H-pyrrolo[2,3-d]pyrimidin-5-yl}-1,3-oxazol-4-yl) benzoic acid], for which the Emax on sGC α1/β1 heterodimer (setting [2]) was 127%. The EC50 at sGC α1/β1 heterodimer stood at 439 nM. Moreover, the Ki in assay [1] turned out to be 0.099 nM.

In the case of `C[C@@]1(c2ccc(CCc3noc(=O)[nH]3)cc2)C(=O)Nc2nc(-c3nn(Cc4ccccc4F)c4cc(Cl)ccc34)nc(N)c21` [Example 256B, (S)-4-Amino-2-[6-chloro-1-(2-fluorobenzyl)-1H-indazol-3-yl]-5-methyl-5-{4-[2-(5-oxo-4,5-dihydro-1,2,4-oxadiazol-3-yl)ethyl]phenyl}-5,7-dihydro-6H-pyrrolo[2,3-d]pyrimidin-6-one], at sGC α1/β1 heterodimer (setting [3]), the Emax is 104%. Also, at sGC α1/β1 heterodimer, the EC50 was determined as 2050 nM. For the same compound, in assay [1], the Ki was found to be 0.074 nM.

Consider `CC(C)(Cc1csc([C@]2(C)C(=O)Nc3nc(-c4nn(Cc5cccc(F)c5F)c5cc(F)ccc45)nc(N)c32)n1)C(=O)O` [Example 199A, (S)-3-(2-{4-amino-2-[1-(2,3-difluorobenzyl)-6-fluoro-1H-indazol-3-yl]-5-methyl-6-oxo-6,7-dihydro-5H-pyrrolo[2,3-d]pyrimidin-5-yl}-1,3-thiazol-4-yl)-2,2-dimethyl-propanoic acid], for which the Emax at sGC α1/β1 heterodimer (setting [2]) is 108%. Also, the EC50 on sGC α1/β1 heterodimer worked out at 66 nM. The Ki in assay [1] is 0.07 nM.

On to `CC(C)(CCc1coc(C2(C)C(=O)Nc3nc(-c4nn(Cc5cccc(F)c5)c5cc(F)ccc45)nc(N)c32)n1)C(=O)O` (stereo not drawn) [Example 197B, 4-(2-{4-amino-2-[6-fluoro-1-(3-fluorobenzyl)-1H-indazol-3-yl]-5-methyl-6-oxo-6,7-dihydro-5H-pyrrolo[2,3-d]pyrimidin-5-yl}-1,3-oxazol-4-yl)-2,2-dimethyl-butanoic acid], for which the Emax on sGC α1/β1 heterodimer (setting [2]) is 106%. Also, at sGC α1/β1 heterodimer, the EC50 was found to be 125 nM. In addition, the Ki in assay [1] worked out at 0.162 nM.

Take `CC1(c2ccc(CCP(=O)(O)O)cc2)C(=O)Nc2nc(-c3nn(Cc4ccccc4F)c4cc(Cl)ccc34)nc(N)c21` (stereo not drawn) [Example 257A, [2-(4-{4-Amino-2-[6-chloro-1-(2-fluorobenzyl)-1H-indazol-3-yl]-5-methyl-6-oxo-6,7-dihydro-5H-pyrrolo[2,3-d]pyrimidin-5-yl}phenyl)ethyl]phosphonic acid]: the Emax on sGC α1/β1 heterodimer (setting [2]) worked out at 84.7%. For the same compound, the EC50 at sGC α1/β1 heterodimer came out at 106 nM. Also, in assay [1], the Ki is 0.105 nM.

Consider `CC(C)(Cc1nc(C2(C)C(=O)Nc3nc(-c4nn(Cc5ccccc5F)c5cc(Cl)ccc45)nc(N)c32)co1)C(=O)O` (stereo not drawn) [Example 128A, 3-(4-{4-amino-2-[6-chloro-1-(2-fluorobenzyl)-1H-indazol-3-yl]-5-methyl-6-oxo-6,7-dihydro-5H-pyrrolo[2,3-d]pyrimidin-5-yl}-1,3-oxazol-2-yl)-2,2-dimethylpropanoic acid], for which the Emax on sGC α1/β1 heterodimer (setting [2]) worked out at 117%. Also, at sGC α1/β1 heterodimer, the EC50 was 137 nM. Further, in assay [1], the inhibition constant (Ki) amounted to 0.111 nM.

In the case of `CC1(c2cnn(CCC(=O)O)n2)C(=O)Nc2nc(-c3nn(CCC(F)(F)C(F)(F)F)c4ncccc34)nc(N)c21` (stereo not drawn) [Example 109B, 3-(4-{4-Amino-5-methyl-6-oxo-2-[1-(3,3,4,4,4-pentafluorobutyl)-1H-pyrazolo[3,4-b]pyridin-3-yl]-6,7-dihydro-5H-pyrrolo[2,3-d]pyrimidin-5-yl}-2H-1,2,3-triazol-2-yl)propanoic acid], the Emax at sGC α1/β1 heterodimer (setting [2]) was 78%. In addition, the EC50 on sGC α1/β1 heterodimer came out at 1660 nM. In addition, the Ki in assay [1] is 2 nM.

Consider `CC1CCC(Cn2nc(-c3nc(N)c4c(n3)NC(=O)[C@@]4(C)c3nc(CC(C)(C)C(=O)O)cs3)c3ccc(F)cc32)CC1` (single isomer, unassigned) [Example 136AA], for which, at sGC α1/β1 heterodimer (setting [2]), the Emax is 78.2%. The EC50 on sGC α1/β1 heterodimer worked out at 11 nM. In assay [1], the Ki came out at 0.252 nM.

In the case of `CC1(c2ccc(CC(=O)O)cc2)C(=O)Nc2nc(-c3nn(CCC(F)(F)C(F)(F)F)c4ncccc34)nc(N)c21` (stereo not drawn) [Example 118A, 2-(4-{4-amino-5-methyl-6-oxo-2-[1-(3,3,4,4,4-pentafluorobutyl)-1H-pyrazolo[3,4-b]pyridin-3-yl]-6,7-dihydro-5H-pyrrolo[2,3-d]pyrimidin-5-yl}phenyl)acetic acid], the Emax on sGC α1/β1 heterodimer (setting [2]) turned out to be 86%. In addition, on sGC α1/β1 heterodimer, the EC50 is 3510 nM. Also, the Ki in assay [1] is 0.166 nM.

With `CC(C)(Cc1coc(C2(C)C(=O)Nc3nc(-c4nn(CC5CCCCO5)c5ncccc45)nc(N)c32)n1)C(=O)O` (single isomer, unassigned) [Example 124AA, 3-{2-[4-amino-5-methyl-6-oxo-2-{1-[tetrahydro-2H-pyran-2-ylmethyl]-1H-pyrazolo[3,4-b]pyridin-3-yl}-6,7-dihydro-5H-pyrrolo[2,3-d]pyrimidin-5-yl]-1,3-oxazol-4-yl}-2,2-dimethylpropanoic acid], the Emax on sGC α1/β1 heterodimer (setting [2]) was 76.5%. The EC50 on sGC α1/β1 heterodimer was 1600 nM. Further, the inhibitory constant (Ki) in assay [1] worked out at 0.506 nM.

With `Cc1ccc(Cn2nc(-c3nc(N)c4c(n3)NC(=O)[C@@]4(C)c3ccc(CCC(=O)O)cc3)c3ccc(Cl)cc32)cc1` [Example 67B, (S)-3-(4-{4-amino-2-[6-chloro-1-(4-methylbenzyl)-1H-indazol-3-yl]-5-methyl-6-oxo-6,7-dihydro-5H-pyrrolo[2,3-d]pyrimidin-5-yl}phenyl)propanoic acid], at sGC α1/β1 heterodimer (setting [2]), the Emax is 115%. The EC50 on sGC α1/β1 heterodimer turned out to be 384 nM. Further, in assay [1], the Ki came to 0.154 nM.

Consider `CC(C)(Cn1cc(C2(C)C(=O)Nc3nc(-c4nn(Cc5ccccc5F)c5ncccc45)nc(N)c32)cn1)C(=O)O` (stereo not drawn) [Example 145A, 3-(4-{4-amino-2-[1-(2-fluoro-benzyl)-1H-pyrazolo [3,4-b]pyridin-3-yl]-5-methyl-6-oxo-6,7-dihydro-5H-pyrrolo[2,3-d]pyrimidin-5-yl}-1H-pyrazol-1-yl)-2,2-dimethyl-propanoic acid], for which the Emax on sGC α1/β1 heterodimer (setting [2]) was found to be 82.9%. On sGC α1/β1 heterodimer, the EC50 was determined as 391 nM. Further, the Ki in assay [1] was found to be 0.299 nM.

With `C[C@@]1(c2ccc(CCC(=O)NS(C)(=O)=O)cc2)C(=O)Nc2nc(-c3nn(Cc4ccccc4F)c4cc(Cl)ccc34)nc(N)c21` [Example 259B, (S)-3-(4-{4-Amino-2-[6-chloro-1-(2-fluorobenzyl)-1H-indazol-3-yl]-5-methyl-6-oxo-6,7-dihydro-5H-pyrrolo[2,3-d]pyrimidin-5-yl}phenyl)-N-(methylsulfonyl)propanamide], the Emax at sGC α1/β1 heterodimer (setting [2]) was 116%. Further, the EC50 on sGC α1/β1 heterodimer came out at 560 nM. In addition, the inhibitory constant (Ki) in assay [1] was determined as 0.111 nM.

As for `CC1(c2nc(C[C@H](N)C(=O)O)cs2)C(=O)Nc2nc(-c3nn(Cc4ccccc4F)c4cc(Cl)ccc34)nc(N)c21` (stereo partly drawn) [Example 234B, (S)-3-(2-{4-Amino-2-[6-chloro-1-(2-fluorobenzyl)-1H-indazol-3-yl]-5-methyl-6-oxo-6,7-dihydro-5H-pyrrolo[2,3-d]pyrimidin-5-yl}-1,3-thiazol-4-yl)-D-alanine], at sGC α1/β1 heterodimer (setting [2]), the Emax was 135%. The EC50 at sGC α1/β1 heterodimer was 265 nM. Moreover, the inhibition constant Ki in assay [1] is 0.947 nM.

With `CC1(N2CCC(CCC(=O)O)CC2)C(=O)Nc2nc(-c3nn(Cc4ccccc4F)c4cc(Cl)ccc34)nc(N)c21` (stereo not drawn) [Example 262B, 3-(1-{4-Amino-2-[6-chloro-1-(2-fluorobenzyl)-1H-indazol-3-yl]-5-methyl-6-oxo-6,7-dihydro-5H-pyrrolo[2,3-d]pyrimidin-5-yl}piperidin-4-yl)propanoic acid], the Emax at sGC α1/β1 heterodimer (setting [2]) turned out to be 82.4%. For the same compound, the EC50 at sGC α1/β1 heterodimer worked out at 27 nM. In assay [1], the inhibitory constant (Ki) amounted to 0.097 nM.

For the compound `Nc1nc(-c2nn(Cc3ccccc3F)c3ncccc23)nc2c1C(c1ccc(CCC(=O)O)cc1)(C1CC1)C(=O)N2` (stereo not drawn) [Example 148A, 3-(4-{4-amino-5-cyclopropyl-2-[1-(2-fluorobenzyl)-1H-pyrazolo[3,4-b]pyridin-3-yl]-6-oxo-6,7-dihydro 5H-pyrrolo[2,3-d]pyrimidin-5-yl}phenyl)propanoic acid], at sGC α1/β1 heterodimer (setting [2]), the Emax is 87.8%. Also, on sGC α1/β1 heterodimer, the EC50 worked out at 238 nM. For the same compound, in assay [1], the Ki was 0.123 nM.

For the origin of these results see patent publication US10030027B2, “Soluble guanylate cyclase stimulators” (MERCK SHARP & DOHME CORP., priority 2015, dated 2018).
